Results as given in patent US8067424B2, “Selective inhibitors for cyclin-dependent kinases” (Emory University, priority 2007, dated 2011).

Columns and labels:
CDK4 [1] = target: T1, CDK4 (Homo sapiens, UniProt P11802); test: CDK4 in vitro kinase inhibition (protocol similar to Example 14); assay type: biochemical; conditions: for remaining activity at 0.1 µM: 100 nM, mean of three (standard deviation), read-out: CDK4 % remaining kinase activity after incubation with 100 nM of compound; for IC50: Table 7, mean of three experiments
Procedure: (§1) Prepared test compounds, prepared at concentrations of 1000, 100, 10, 1 and 0.1 μM. Diluted 1 in 40 in ddH2O and added 1 μl of test compound or DMSO (controls). • 3. Incubated at 30° C. for 30 mins in a water bath. • 4. Added 10 µl of ATP […] per reaction to get a final concentration of 2 μM ATP. • 5. Made up to 25 μl total volume with ddH2O • 6. Incubated for 20 min at 30° C. in a water bath • 7. Used the PKLight Kinase assay (Cambrex, UK), add to each reaction 10 μl of stop reaction and mix thoroughly. Incubated at room temp for 10 min. • 8. Added 20 μ1 Luciferase reaction mixture (Cambrex, UK) per reaction, and further incubated at room temp for 10 mins and determined luciferase activities according to manufacturer's methods. Kinase reactions were added to 96 well microplates and luciferase activities determined using a Packard TopCount NXT™ luminescent counter (TopCount 9904). The luminometer was programmed to take a read time of 0.1 integrated reading and emission of light was detectable at 560 nm. • 9. All kinase inhibition assays were carried out in triplicate. As the bioluminescent signal is inversely proportional to kinase activity, all values were deducted from the no enzyme control. These values were then plotted utilizing the enzyme control as a reference to 100% activity and compared to all other values.
(§2) This example provides in vitro kinase inhibition data for various compounds within the scope of the invention versus CDK 2, CDK 4, CDK, 5, CDK 7 and CDK 9. The protocol was similar to that shown in Example 14 Inhibition of the protein kinases was performed in triplicate using each compound at 100 nM.
(§3) This example provides in vitro kinase inhibition data for various compounds within the scope of the invention versus CDK 2, CDK 4, CDK, 5, CDK 7 and CDK 9.

CDK 5 = CDK 5 (Homo sapiens, UniProt Q00535); test: CDK5 in vitro kinase inhibition (protocol similar to Example 14); assay type: biochemical; conditions: 100 nM; mean of three (standard deviation); read-out: CDK5 % remaining kinase activity after incubation with 100 nM of compound
Procedure: as §1, §2, §3

CDK4 [2] = target: T1, CDK4; test: 32P incorporation kinase assay, CDK4
CDK9/cyclin T complex = target: T2, CDK9/cyclin T complex (Homo sapiens, UniProt P50750); test: CDK9/cyclin T kinase assay (as for CDK7); assay type: biochemical; conditions: 100 nM; mean of three (standard deviation); read-out: CDK9 % remaining kinase activity after incubation with 100 nM of compound
T2 construct: purchased Proqinase GmbH, Germany
Procedure: as §1
Inhibition of CDK2 was assessed using 50 ng CDK2/cyclin A complex (Proqinase GmbH, Germany), as above for CDK7 Inhibition of CDK9 was assessed using 100 ng CDK9/cyclin T complex (Proqinase GmbH, Germany), as above for CDK7.

CDK2/cyclin A complex = target: T3, CDK2/cyclin A complex (Homo sapiens, UniProt P24941); test: CDK2/cyclin A kinase assay (as for CDK7); assay type: biochemical; conditions: for remaining activity at 0.1 µM: 100 nM, mean of three (standard deviation), read-out: CDK2 % remaining kinase activity after incubation with 100 nM of compound
T3 construct: purchased Proqinase GmbH, Germany
Outline: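 Run as the CDK7 protocol with 50 ng CDK2/cyclin A or 100 ng CDK9/cyclin T; compound 30 min at 30 °C, then 2 μM ATP final for 20 min at 30 °C. ATP depletion by luciferase luminescence (PKLight), triplicate, normalised to no-enzyme and enzyme controls.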

MCF-7 = test: Growth assay (SRB, 72 hours); assay type: cell-based; conditions: MCF-7, 72 hours; for IC50 / CC50: Homo sapiens, MCF7; for IC50: read-out: Growth Inhibition MCF7 IC50; for CC50: read-out: Growth Inhibition MCF7 LC50
Procedure: Growth assay: The cell lines (MCF-7 and MDA-MB-231; purchased from ATCC, USA) were routinely passaged in Dulbecco's Modified Eagle's Medium (DMEM), supplemented with 10% fetal calf serum (FCS) and kept in a 37° C. incubator with 5% CO2. For the growth assay, 6000 cells were seeded into each well of 96-well plates in DMEM containing 10% FCS. Compounds prepared in DMSO were added to the medium at concentrations ranging from 0.4-100 μM. The cells were incubated for a further 72 hours, at which time they were fixed by the addition of 100 μl/well of ice-cold 40% TCA. The plates were left for 1 hour, washed in water and 100 μl of 0.4% (w/v) sulphorhodamine (SRB; Sigma-Aldrich, UK) prepared in 1% acetic acid was added. Plates were washed in 1% acetic acid to remove excess SRB reagent, air dried and bound dye was solubilized by the addition of 100 μl of 10 mM Tris base. The plates were read at 492 nm using a plate reader.

CAK (CDK7) = CAK (CDK7) (Homo sapiens, UniProt P50613); test: 32P incorporation kinase assay, CAK
MCF-7 cell line = test: cells; assay type: cell-based; conditions: Homo sapiens, MCF-7, SRB assay, 24 hours; for LC50 (concentration causing 50% net cell kill) / IC (total growth inhibition): MCF7, 24 h; for IC (total growth inhibition): read-out: TGI; for IC50: MCF7, mean of three experiments, read-out: IC50

T1 sequence (P11802 whole entry): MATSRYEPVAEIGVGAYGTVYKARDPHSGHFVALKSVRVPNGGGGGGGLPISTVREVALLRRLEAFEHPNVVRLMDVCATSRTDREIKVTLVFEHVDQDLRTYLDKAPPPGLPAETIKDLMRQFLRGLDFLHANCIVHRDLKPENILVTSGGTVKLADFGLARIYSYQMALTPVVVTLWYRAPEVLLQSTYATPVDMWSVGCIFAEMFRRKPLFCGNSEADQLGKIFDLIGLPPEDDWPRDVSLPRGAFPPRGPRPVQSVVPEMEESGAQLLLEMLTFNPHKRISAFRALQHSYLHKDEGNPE
T1 sequence (P24385 whole entry partner): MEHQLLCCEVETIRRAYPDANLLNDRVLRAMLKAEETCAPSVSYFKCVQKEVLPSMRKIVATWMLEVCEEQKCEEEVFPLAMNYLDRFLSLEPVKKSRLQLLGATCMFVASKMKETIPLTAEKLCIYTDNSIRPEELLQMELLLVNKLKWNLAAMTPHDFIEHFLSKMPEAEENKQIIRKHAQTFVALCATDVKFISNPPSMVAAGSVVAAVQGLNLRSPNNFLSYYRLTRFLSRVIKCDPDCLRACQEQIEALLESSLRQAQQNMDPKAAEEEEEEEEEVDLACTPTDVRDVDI
Chain of CAK (CDK7) (P50613 whole entry): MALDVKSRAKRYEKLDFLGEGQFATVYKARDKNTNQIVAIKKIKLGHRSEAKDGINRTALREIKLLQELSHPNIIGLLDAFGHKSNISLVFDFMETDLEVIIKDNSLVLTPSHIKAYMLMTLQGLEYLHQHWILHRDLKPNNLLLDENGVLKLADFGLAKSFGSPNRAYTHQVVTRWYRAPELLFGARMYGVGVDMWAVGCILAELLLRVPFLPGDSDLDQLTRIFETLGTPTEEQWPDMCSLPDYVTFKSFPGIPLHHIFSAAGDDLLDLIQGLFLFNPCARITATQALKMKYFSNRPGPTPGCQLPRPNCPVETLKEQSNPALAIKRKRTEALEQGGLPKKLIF
Chain of CAK (CDK7) (P51946 whole entry partner): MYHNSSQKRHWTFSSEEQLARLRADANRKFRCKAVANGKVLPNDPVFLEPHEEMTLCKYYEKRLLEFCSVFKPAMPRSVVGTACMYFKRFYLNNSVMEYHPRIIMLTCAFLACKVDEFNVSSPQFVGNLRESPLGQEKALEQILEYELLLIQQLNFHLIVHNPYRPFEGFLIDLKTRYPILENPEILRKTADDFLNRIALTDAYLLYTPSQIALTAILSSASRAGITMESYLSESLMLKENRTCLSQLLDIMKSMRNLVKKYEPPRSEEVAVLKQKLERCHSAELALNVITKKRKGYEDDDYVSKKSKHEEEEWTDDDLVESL
Chain of CAK (CDK7) (P51948 whole entry partner): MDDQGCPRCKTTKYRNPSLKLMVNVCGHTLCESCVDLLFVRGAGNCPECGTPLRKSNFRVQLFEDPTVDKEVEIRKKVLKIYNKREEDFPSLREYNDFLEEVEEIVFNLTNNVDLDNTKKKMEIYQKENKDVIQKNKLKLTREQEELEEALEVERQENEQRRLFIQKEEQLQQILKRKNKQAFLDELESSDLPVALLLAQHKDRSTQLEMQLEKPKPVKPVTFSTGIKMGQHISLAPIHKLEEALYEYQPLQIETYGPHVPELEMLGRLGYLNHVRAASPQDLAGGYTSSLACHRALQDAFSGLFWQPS
Chain of CDK 5 (Q00535 whole entry): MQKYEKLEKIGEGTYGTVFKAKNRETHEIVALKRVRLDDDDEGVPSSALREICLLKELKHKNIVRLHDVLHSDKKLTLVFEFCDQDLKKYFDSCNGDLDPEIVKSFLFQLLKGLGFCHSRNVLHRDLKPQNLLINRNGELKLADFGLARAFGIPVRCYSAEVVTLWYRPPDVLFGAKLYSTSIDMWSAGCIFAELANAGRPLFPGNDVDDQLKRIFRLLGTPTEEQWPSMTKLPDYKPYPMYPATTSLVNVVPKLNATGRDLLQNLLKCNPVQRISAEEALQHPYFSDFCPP
Chain of CDK 5 (Q15078 whole entry partner): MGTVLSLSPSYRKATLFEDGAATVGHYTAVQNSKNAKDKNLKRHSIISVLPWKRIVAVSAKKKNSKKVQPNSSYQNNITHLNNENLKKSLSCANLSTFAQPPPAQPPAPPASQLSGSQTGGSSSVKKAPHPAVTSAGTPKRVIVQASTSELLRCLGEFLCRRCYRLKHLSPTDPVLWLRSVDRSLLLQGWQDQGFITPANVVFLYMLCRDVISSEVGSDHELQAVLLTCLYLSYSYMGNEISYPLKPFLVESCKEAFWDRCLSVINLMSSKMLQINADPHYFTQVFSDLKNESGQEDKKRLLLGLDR
T2 sequence (P50750 whole entry): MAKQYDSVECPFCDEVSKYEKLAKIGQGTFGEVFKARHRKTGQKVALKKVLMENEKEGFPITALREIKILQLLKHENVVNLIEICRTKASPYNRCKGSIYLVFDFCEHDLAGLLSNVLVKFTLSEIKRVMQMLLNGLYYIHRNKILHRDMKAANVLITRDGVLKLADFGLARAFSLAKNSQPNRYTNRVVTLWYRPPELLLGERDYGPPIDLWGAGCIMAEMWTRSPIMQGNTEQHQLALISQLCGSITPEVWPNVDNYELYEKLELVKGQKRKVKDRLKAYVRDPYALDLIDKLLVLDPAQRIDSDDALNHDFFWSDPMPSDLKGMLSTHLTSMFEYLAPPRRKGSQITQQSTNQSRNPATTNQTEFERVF
T2 sequence (O60563 whole entry partner): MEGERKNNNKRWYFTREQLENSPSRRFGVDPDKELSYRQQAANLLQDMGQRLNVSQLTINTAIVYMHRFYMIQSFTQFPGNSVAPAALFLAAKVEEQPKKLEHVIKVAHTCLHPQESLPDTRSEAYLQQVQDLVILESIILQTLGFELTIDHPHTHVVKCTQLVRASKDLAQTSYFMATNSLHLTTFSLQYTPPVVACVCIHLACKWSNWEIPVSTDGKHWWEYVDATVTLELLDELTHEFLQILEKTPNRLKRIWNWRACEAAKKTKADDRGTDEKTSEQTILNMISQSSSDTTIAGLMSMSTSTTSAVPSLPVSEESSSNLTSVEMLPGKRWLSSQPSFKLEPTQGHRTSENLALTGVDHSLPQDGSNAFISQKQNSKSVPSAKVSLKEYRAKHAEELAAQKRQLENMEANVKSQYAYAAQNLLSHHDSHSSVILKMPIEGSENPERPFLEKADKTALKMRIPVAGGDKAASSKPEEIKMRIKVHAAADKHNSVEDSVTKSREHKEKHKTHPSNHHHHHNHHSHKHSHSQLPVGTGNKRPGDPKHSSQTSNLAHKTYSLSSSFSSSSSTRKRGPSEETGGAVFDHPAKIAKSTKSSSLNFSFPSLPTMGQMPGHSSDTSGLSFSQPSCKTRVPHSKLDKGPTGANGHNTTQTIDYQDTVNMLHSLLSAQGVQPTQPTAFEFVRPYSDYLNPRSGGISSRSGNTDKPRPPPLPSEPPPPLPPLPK

Row | SMILES | remaining activity at 0.1 µM (CDK4 [1]) [%] | IC50 (CDK4 [1]) [µM] | remaining activity at 0.1 µM (CDK 5) [%] | IC50 (CDK4 [2]) [µM] | remaining activity at 0.1 µM (CDK9/cyclin T complex) [%] | remaining activity at 0.1 µM (CDK2/cyclin A complex) [%] | IC50 (CDK2/cyclin A complex; Table 7, mean of three experiments, read-out: CDK2 kinase inhibition in vitro (IC50)) [µM] | IC50 (MCF-7) [µM] | CC50 (MCF-7) [µM] | Growth Inhibition MCF7 TGI (MCF-7) [µM] | IC50 (CAK (CDK7)) [µM] | LC50 (concentration causing 50% net cell kill) (MCF-7 cell line) [µM] | IC (total growth inhibition) (MCF-7 cell line) [µM] | IC50 (MCF-7 cell line) [µM]
1 | CC(C)c1cnn2c(NCc3ccccc3F)cc(NC(CO)CCCCCCCc3cncnc3)nc12 (stereo not drawn) [ICEC0168] | 96 | > 1 | 97 | > 1 | 91 | 83 | < 0.1 | > 100 | 35 | >100 | 0.12 | 25 | 55 | > 100
2 | CC(C)c1cnn2c(NCc3ccccc3)cc(NCCCCCCC#N)nc12 [ICEC0179] | 99 | > 1 | 94 | > 1 | 97 | 52 | – | 35 | > 100 | >100 | 0.02 | 16 | 26 | 44
